Laboratory results taken from PubChem BioAssay (NCI).
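1) Cells in 96-well plates. 2) Compound, 48 h, 5 concentrations. 3) Linear interpolation between surrounding doses. 4) Unreached endpoint = highest concentration. GI50 = concentration required for 50% inhibition of growth. TGI: total growth inhibition.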

Experiments:
Assay in all cases: NCI-60 cell line screen, 48 h
[1] = system: HCC-2998 colon
[2] = system: LOX IMVI melanoma
[3] = system: OVCAR-8 ovarian
[4] = system: UACC-62 melanoma
[5] = system: SF-539 CNS
[6] = system: NCI-H226 lung
[7] = system: SK-MEL-2 melanoma
[8] = system: BT-549 breast
[9] = system: SNB-75 CNS
[10] = system: RXF 393 renal
[11] = system: A498 renal
[12] = system: MCF7 breast
[13] = system: COLO 205 colon
[14] = system: SF-295 CNS
[15] = system: ACHN renal
[16] = system: T-47D breast
[17] = system: UACC-257 melanoma
[18] = system: HS 578T breast
[19] = system: MALME-3M melanoma
[20] = system: CAKI-1 renal
[21] = system: NCI-H23 lung
[22] = system: IGROV1 ovarian
[23] = system: UO-31 renal
[24] = system: HOP-62 NSCLC
[25] = system: EKVX NSCLC
[26] = system: SK-MEL-5 melanoma
[27] = system: HT29 colon
[28] = system: KM12 colon
[29] = system: PC-3 prostate
[30] = system: SN12C renal
[31] = system: MOLT-4 leukemia
[32] = system: SK-OV-3 ovarian
[33] = system: K-562 leukemia
[34] = system: MDA-MB-231 breast
[35] = system: SNB-19 CNS
[36] = system: A549 NSCLC
[37] = system: M14 melanoma
[38] = system: HCT-116 colon
[39] = system: SK-MEL-28 melanoma
[40] = system: SR leukemia
[41] = system: 786-0 renal
[42] = system: NCI-H460 lung
[43] = system: RPMI-8226 leukemia
[44] = system: NCI/ADR-RES ovarian
[45] = system: U251 CNS
[46] = system: SF-268 CNS
[47] = system: TK-10 renal
[48] = system: HL-60(TB) leukemia
[49] = system: OVCAR-5 ovarian
[50] = system: OVCAR-3 ovarian
[51] = system: CCRF-CEM leukemia
[52] = system: OVCAR-4 ovarian
[53] = system: SW-620 colon
[54] = system: NCI-H522 lung
[55] = system: MDA-MB-435
[56] = system: DU-145 prostate
[57] = system: HCT-15 colon

CC12OC(c3ccccc3)=CC(c3ccc(Cl)cc3)=C1C(c1ccccc1)=CC2=O (stereo unspecified)
GI50 [1]: 75.2 µM
TGI [1]: > 100 µM
GI50 [2]: 46 µM
TGI [2]: > 100 µM
GI50 [3]: > 100 µM
TGI [3]: > 100 µM
GI50 [4]: 49.4 µM
TGI [4]: > 100 µM
GI50 [5]: > 100 µM
TGI [5]: > 100 µM
GI50 [6]: 68.1 µM
TGI [6]: > 100 µM
GI50 [7]: > 100 µM
TGI [7]: > 100 µM
GI50 [8]: > 100 µM
TGI [8]: > 100 µM
GI50 [9]: 33.4 µM
TGI [9]: > 100 µM
GI50 [10]: 19.1 µM
TGI [10]: > 100 µM
GI50 [11]: > 100 µM
TGI [11]: > 100 µM
GI50 [12]: 60.8 µM
TGI [12]: > 100 µM
GI50 [13]: 64.9 µM
TGI [13]: > 100 µM
GI50 [14]: 25 µM
TGI [14]: > 100 µM
GI50 [15]: 55.4 µM
TGI [15]: > 100 µM
GI50 [16]: 35.8 µM
TGI [16]: > 100 µM
GI50 [17]: 49.3 µM
TGI [17]: > 100 µM
GI50 [18]: > 100 µM
TGI [18]: > 100 µM
GI50 [19]: > 100 µM
TGI [19]: > 100 µM
GI50 [20]: > 100 µM
TGI [20]: > 100 µM
GI50 [21]: 41.5 µM
TGI [21]: > 100 µM
GI50 [22]: > 100 µM
TGI [22]: > 100 µM
GI50 [23]: > 100 µM
TGI [23]: > 100 µM
GI50 [24]: > 100 µM
TGI [24]: > 100 µM
GI50 [25]: > 100 µM
TGI [25]: > 100 µM
GI50 [26]: 42.1 µM
TGI [26]: > 100 µM
GI50 [27]: 27.7 µM
TGI [27]: > 100 µM
GI50 [28]: 71.8 µM
TGI [28]: > 100 µM
GI50 [29]: 34.4 µM
TGI [29]: > 100 µM
GI50 [30]: > 100 µM
TGI [30]: > 100 µM
GI50 [31]: 20.6 µM
TGI [31]: 75.6 µM
GI50 [32]: > 100 µM
TGI [32]: > 100 µM
GI50 [33]: 28.9 µM
TGI [33]: > 100 µM
GI50 [34]: 67.2 µM
TGI [34]: > 100 µM
GI50 [35]: > 100 µM
TGI [35]: > 100 µM
GI50 [36]: 89.1 µM
TGI [36]: > 100 µM
GI50 [37]: 28.2 µM
TGI [37]: 83 µM
GI50 [38]: 46.1 µM
TGI [38]: > 100 µM
GI50 [39]: 66.5 µM
TGI [39]: > 100 µM
GI50 [40]: 19.1 µM
TGI [40]: 67 µM
GI50 [41]: 94.7 µM
TGI [41]: > 100 µM
GI50 [42]: 34.8 µM
TGI [42]: > 100 µM
GI50 [43]: 17.3 µM
TGI [43]: 47.2 µM
GI50 [44]: 55.9 µM
TGI [44]: > 100 µM
GI50 [45]: 33.1 µM
TGI [45]: > 100 µM
GI50 [46]: > 100 µM
TGI [46]: > 100 µM
GI50 [47]: > 100 µM
TGI [47]: > 100 µM
GI50 [48]: 23.2 µM
TGI [48]: 77.7 µM
GI50 [49]: > 100 µM
TGI [49]: > 100 µM
GI50 [50]: 80 µM
TGI [50]: > 100 µM
GI50 [51]: 56.2 µM
TGI [51]: > 100 µM
GI50 [52]: 19 µM
TGI [52]: > 100 µM
GI50 [53]: 90.4 µM
TGI [53]: > 100 µM
GI50 [54]: 72.2 µM
TGI [54]: > 100 µM
GI50 [55]: 81.3 µM
TGI [55]: > 100 µM
GI50 [56]: > 100 µM
TGI [56]: > 100 µM
GI50 [57]: 26.3 µM
TGI [57]: > 100 µM

C=CCC(N[C@H](CO)c1ccccc1)c1ccc2ccccc2n1 (stereo partly specified)
GI50 [1]: > 100 µM
TGI [1]: > 100 µM
GI50 [2]: > 100 µM
TGI [2]: > 100 µM
GI50 [3]: > 100 µM
TGI [3]: > 100 µM
GI50 [4]: > 100 µM
TGI [4]: > 100 µM
GI50 [5]: > 100 µM
TGI [5]: > 100 µM
GI50 [6]: > 100 µM
TGI [6]: > 100 µM
GI50 [7]: > 100 µM
TGI [7]: > 100 µM
GI50 [8]: > 100 µM
TGI [8]: > 100 µM
GI50 [9]: > 100 µM
TGI [9]: > 100 µM
GI50 [10]: > 100 µM
TGI [10]: > 100 µM
GI50 [11]: 29.3 µM
TGI [11]: > 100 µM
GI50 [13]: > 100 µM
TGI [13]: > 100 µM
GI50 [14]: > 100 µM
TGI [14]: > 100 µM
GI50 [15]: > 100 µM
TGI [15]: > 100 µM
GI50 [16]: > 100 µM
TGI [16]: > 100 µM
GI50 [17]: > 100 µM
TGI [17]: > 100 µM
GI50 [18]: 22.5 µM
TGI [18]: > 100 µM
GI50 [19]: > 100 µM
TGI [19]: > 100 µM
GI50 [20]: > 100 µM
TGI [20]: > 100 µM
GI50 [21]: > 100 µM
TGI [21]: > 100 µM
GI50 [22]: 45.9 µM
TGI [22]: > 100 µM
GI50 [23]: > 100 µM
TGI [23]: > 100 µM
GI50 [24]: > 100 µM
TGI [24]: > 100 µM
GI50 [25]: > 100 µM
TGI [25]: > 100 µM
GI50 [27]: > 100 µM
TGI [27]: > 100 µM
GI50 [28]: > 100 µM
TGI [28]: > 100 µM
GI50 [29]: > 100 µM
TGI [29]: > 100 µM
GI50 [30]: > 100 µM
TGI [30]: > 100 µM
GI50 [32]: > 100 µM
TGI [32]: > 100 µM
GI50 [33]: > 100 µM
TGI [33]: > 100 µM
GI50 [34]: > 100 µM
TGI [34]: > 100 µM
GI50 [36]: > 100 µM
TGI [36]: > 100 µM
GI50 [37]: > 100 µM
TGI [37]: > 100 µM
GI50 [38]: > 100 µM
TGI [38]: > 100 µM
GI50 [39]: > 100 µM
TGI [39]: > 100 µM
GI50 [40]: > 100 µM
TGI [40]: > 100 µM
GI50 [41]: > 100 µM
TGI [41]: > 100 µM
GI50 [43]: > 100 µM
TGI [43]: > 100 µM
GI50 [44]: > 100 µM
TGI [44]: > 100 µM
GI50 [45]: > 100 µM
TGI [45]: > 100 µM
GI50 [47]: > 100 µM
TGI [47]: > 100 µM
GI50 [48]: 48.7 µM
TGI [48]: > 100 µM
GI50 [49]: > 100 µM
TGI [49]: > 100 µM
GI50 [50]: > 100 µM
TGI [50]: > 100 µM
GI50 [51]: > 100 µM
TGI [51]: > 100 µM
GI50 [52]: > 100 µM
TGI [52]: > 100 µM
GI50 [53]: > 100 µM
TGI [53]: > 100 µM
GI50 [54]: > 100 µM
TGI [54]: > 100 µM
GI50 [55]: > 100 µM
TGI [55]: > 100 µM
GI50 [56]: > 100 µM
TGI [56]: > 100 µM
GI50 [57]: > 100 µM
TGI [57]: > 100 µM
